The values below come from Sander's compilation of Henry's law constants (doi:10.1016/s0021-9673(98)00877-2).

Molecules are shown by their SMILES.

This data set is described as follows: Henry solubility constant Hcp at 298.15 K (mol/(m3 Pa)). Particulars: reference: Dewulf et al. (1999).
Consider `C=C(Cl)Cl` [1,1-dichloroethene], for which the “Henry solubility constant Hcp” value turned out to be 0.00037. As for `COc1ccccc1` [methoxybenzene], the figure is 0.026; as for `Fc1ccccc1` [fluorobenzene], 0.0014; as for `c1ccc2ccccc2c1` [naphthalene], 0.013. Next, `C1CCCCC1` [cyclohexane]: 5.2e-05. As for `CC(Cl)CCl` (centres undefined) [1,2-dichloropropane], the figure is 0.0035; as for `Clc1ccccc1` [chlorobenzene], 0.0025; as for `Clc1cc(Cl)cc(Cl)c1` [1,3,5-trichlorobenzene], 0.0018. Consider `Cc1ccccc1` [methylbenzene], for which the “Henry solubility constant Hcp” value was found to be 0.0015. Next, `ClC(Cl)=C(Cl)C(Cl)=C(Cl)Cl` [hexachlorobutadiene]: 0.00062; `O=[N+]([O-])c1ccccc1` [nitrobenzene]: 0.023. For `ClCC(Cl)Cl` [1,1,2-trichloroethane], the “Henry solubility constant Hcp” value turned out to be 0.011. Take `Clc1cccc(Cl)c1Cl` [1,2,3-trichlorobenzene]: the “Henry solubility constant Hcp” value is 0.0036. For the molecule `ClC=C(Cl)Cl` [trichloroethene], the “Henry solubility constant Hcp” value amounted to 0.00095.
